Article PMC12670405, “Second-Generation AURKA-Targeting PROTACs: Structural Optimization toward in Vivo Degradation in Neuroblastoma” (Journal of Medicinal Chemistry, 2025)

Tests used:
Test in all cases: KINOMEscan scanMAX
Format in all cases: binding
ACVR1B = biological target: T1, ACVR1B (Homo sapiens, UniProt P36896); conditions: read-out: Percent Control
T1 construct: purchased Eurofins Discovery (DiscoverX KINOMEscan scanMAX)
Procedure: (§1) The kinome-wide binding assay was performed by Eurofins Discovery using the scanMAX screening platform. More information can be found on the Eurofins Discovery Web site.

PIK4CB = biological target: T2, PIK4CB (Homo sapiens, UniProt Q9UBF8); conditions: read-out: Percent Control
T2 construct: purchased Eurofins Discovery (DiscoverX KINOMEscan scanMAX)
Procedure: as §1

MARK2 = biological target: T3, MARK2 (Homo sapiens, UniProt Q7KZI7); conditions: read-out: Percent Control
T3 construct: purchased Eurofins Discovery (DiscoverX KINOMEscan scanMAX)
Procedure: as §1

FYN = biological target: T4, FYN (Homo sapiens, UniProt P06241); conditions: read-out: Percent Control
T4 construct: purchased Eurofins Discovery (DiscoverX KINOMEscan scanMAX)
Procedure: as §1

RET(V804L) = biological target: T5, RET(V804L) (Homo sapiens, UniProt P07949, V804L); conditions: read-out: Percent Control
T5 construct: purchased Eurofins Discovery (DiscoverX KINOMEscan scanMAX)
Procedure: as §1

CSNK1G1 = biological target: T6, CSNK1G1 (Homo sapiens, UniProt Q9HCP0); conditions: read-out: Percent Control
T6 construct: purchased Eurofins Discovery (DiscoverX KINOMEscan scanMAX)
Procedure: as §1

DLK = biological target: T7, DLK (Homo sapiens, UniProt Q12852); conditions: read-out: Percent Control
T7 construct: purchased Eurofins Discovery (DiscoverX KINOMEscan scanMAX)
Procedure: as §1

JNK1 = biological target: T8, JNK1 (Homo sapiens, UniProt P45983); conditions: read-out: Percent Control
T8 construct: purchased Eurofins Discovery (DiscoverX KINOMEscan scanMAX)
Procedure: as §1

GSK3B = biological target: T9, GSK3B (Homo sapiens, UniProt P49841); conditions: read-out: Percent Control
T9 construct: purchased Eurofins Discovery (DiscoverX KINOMEscan scanMAX)
T9 sequence (P49841 whole entry): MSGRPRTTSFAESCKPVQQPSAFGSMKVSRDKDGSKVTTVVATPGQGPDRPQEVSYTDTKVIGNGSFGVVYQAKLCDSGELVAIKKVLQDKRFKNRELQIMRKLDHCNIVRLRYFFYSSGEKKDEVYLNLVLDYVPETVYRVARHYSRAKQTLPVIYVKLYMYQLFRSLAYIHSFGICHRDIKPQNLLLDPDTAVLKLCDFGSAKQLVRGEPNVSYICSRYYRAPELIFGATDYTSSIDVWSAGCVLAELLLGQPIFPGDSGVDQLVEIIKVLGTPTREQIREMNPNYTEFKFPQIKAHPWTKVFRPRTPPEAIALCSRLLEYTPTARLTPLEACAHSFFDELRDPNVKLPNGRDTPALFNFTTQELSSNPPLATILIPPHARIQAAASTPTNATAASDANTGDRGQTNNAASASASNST
Procedure: as §1

FER = biological target: T10, FER (Homo sapiens, UniProt P16591); conditions: read-out: Percent Control
T10 construct: purchased Eurofins Discovery (DiscoverX KINOMEscan scanMAX)
Procedure: as §1

[1] = biological target: T11, ABL1(T315I)-nonphosphorylated (Homo sapiens, UniProt P00519, T315I); conditions: read-out: Percent Control
T11 construct: purchased Eurofins Discovery (DiscoverX KINOMEscan scanMAX)
Procedure: as §1

ALK = biological target: T12, ALK (Homo sapiens, UniProt Q9UM73); conditions: read-out: Percent Control
T12 construct: purchased Eurofins Discovery (DiscoverX KINOMEscan scanMAX)
Procedure: as §1

CSNK1E = biological target: T13, CSNK1E (Homo sapiens, UniProt P49674); conditions: read-out: Percent Control
T13 construct: purchased Eurofins Discovery (DiscoverX KINOMEscan scanMAX)
T13 sequence (P49674 whole entry): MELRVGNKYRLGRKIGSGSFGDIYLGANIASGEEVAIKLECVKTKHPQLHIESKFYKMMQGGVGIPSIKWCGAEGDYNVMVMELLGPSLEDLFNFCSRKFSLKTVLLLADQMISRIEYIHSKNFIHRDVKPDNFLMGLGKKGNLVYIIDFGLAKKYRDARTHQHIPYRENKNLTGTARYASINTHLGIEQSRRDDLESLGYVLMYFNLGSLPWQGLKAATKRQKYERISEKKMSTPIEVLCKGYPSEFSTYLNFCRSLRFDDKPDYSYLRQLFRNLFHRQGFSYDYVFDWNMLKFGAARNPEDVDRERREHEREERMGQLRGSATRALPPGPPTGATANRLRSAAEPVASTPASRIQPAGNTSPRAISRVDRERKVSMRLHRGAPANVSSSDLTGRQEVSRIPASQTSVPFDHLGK
Procedure: as §1

ABL1-phosphorylated = biological target: T14, ABL1-phosphorylated (Homo sapiens, UniProt P00519); conditions: read-out: Percent Control
T14 construct: purchased Eurofins Discovery (DiscoverX KINOMEscan scanMAX)
Procedure: as §1

p38-beta = biological target: T15, p38-beta (Homo sapiens, UniProt Q15759); conditions: read-out: Percent Control
T15 construct: purchased Eurofins Discovery (DiscoverX KINOMEscan scanMAX)
Procedure: as §1

DYRK2 = biological target: T16, DYRK2 (Homo sapiens, UniProt Q92630); conditions: read-out: Percent Control
T16 construct: purchased Eurofins Discovery (DiscoverX KINOMEscan scanMAX)
Procedure: as §1

STK35 = biological target: T17, STK35 (Homo sapiens, UniProt Q8TDR2); conditions: read-out: Percent Control
T17 construct: purchased Eurofins Discovery (DiscoverX KINOMEscan scanMAX)
Procedure: as §1

QSK = biological target: T18, QSK (Homo sapiens, UniProt Q9Y2K2); conditions: read-out: Percent Control
T18 construct: purchased Eurofins Discovery (DiscoverX KINOMEscan scanMAX)
T18 sequence (Q9Y2K2 whole entry): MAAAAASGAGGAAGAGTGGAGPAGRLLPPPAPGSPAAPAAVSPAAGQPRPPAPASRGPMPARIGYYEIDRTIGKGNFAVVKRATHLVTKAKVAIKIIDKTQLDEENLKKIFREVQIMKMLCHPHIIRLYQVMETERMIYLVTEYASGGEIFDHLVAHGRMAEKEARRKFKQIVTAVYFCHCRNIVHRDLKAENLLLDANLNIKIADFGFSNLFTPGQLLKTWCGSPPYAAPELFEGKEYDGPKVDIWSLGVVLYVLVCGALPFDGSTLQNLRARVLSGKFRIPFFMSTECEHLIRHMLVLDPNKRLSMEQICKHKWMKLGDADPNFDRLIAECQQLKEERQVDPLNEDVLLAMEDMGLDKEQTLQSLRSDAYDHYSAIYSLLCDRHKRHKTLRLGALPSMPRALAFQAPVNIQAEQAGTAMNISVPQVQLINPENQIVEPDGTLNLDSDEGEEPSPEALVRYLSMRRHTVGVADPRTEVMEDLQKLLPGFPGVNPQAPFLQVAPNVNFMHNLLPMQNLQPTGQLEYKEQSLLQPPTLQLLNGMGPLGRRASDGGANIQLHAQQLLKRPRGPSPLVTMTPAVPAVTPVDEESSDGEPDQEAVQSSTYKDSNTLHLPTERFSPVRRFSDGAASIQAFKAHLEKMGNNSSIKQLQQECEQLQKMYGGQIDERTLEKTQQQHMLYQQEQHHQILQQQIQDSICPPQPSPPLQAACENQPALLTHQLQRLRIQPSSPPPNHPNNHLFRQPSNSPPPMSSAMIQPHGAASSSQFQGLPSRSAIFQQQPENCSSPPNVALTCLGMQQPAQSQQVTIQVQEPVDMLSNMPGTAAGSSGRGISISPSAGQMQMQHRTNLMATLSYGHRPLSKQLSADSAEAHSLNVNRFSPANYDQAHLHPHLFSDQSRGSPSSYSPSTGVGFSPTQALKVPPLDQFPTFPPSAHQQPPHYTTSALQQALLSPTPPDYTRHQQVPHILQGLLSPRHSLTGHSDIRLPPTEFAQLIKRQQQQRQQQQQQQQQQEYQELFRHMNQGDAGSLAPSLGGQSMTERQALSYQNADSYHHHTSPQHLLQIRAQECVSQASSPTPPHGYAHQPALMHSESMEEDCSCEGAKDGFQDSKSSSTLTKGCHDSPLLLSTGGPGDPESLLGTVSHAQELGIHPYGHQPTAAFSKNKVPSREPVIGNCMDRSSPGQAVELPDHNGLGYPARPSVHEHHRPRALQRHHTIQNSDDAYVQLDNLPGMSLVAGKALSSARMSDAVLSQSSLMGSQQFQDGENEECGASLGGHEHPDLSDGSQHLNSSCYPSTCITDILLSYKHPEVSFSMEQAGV
Procedure: as §1

MAP3K15 = biological target: T19, MAP3K15 (Homo sapiens, UniProt Q6ZN16); conditions: read-out: Percent Control
T19 construct: purchased Eurofins Discovery (DiscoverX KINOMEscan scanMAX)
Procedure: as §1

IKK-beta = biological target: T20, IKK-beta (Homo sapiens, UniProt O14920); conditions: read-out: Percent Control
T20 construct: purchased Eurofins Discovery (DiscoverX KINOMEscan scanMAX)
Procedure: as §1

[2] = biological target: T21, ABL1(E255K)-phosphorylated (Homo sapiens, UniProt P00519, E255K); conditions: read-out: Percent Control
T21 construct: purchased Eurofins Discovery (DiscoverX KINOMEscan scanMAX)
Procedure: as §1

JNK2 = biological target: T22, JNK2 (Homo sapiens, UniProt P45984); conditions: read-out: Percent Control
T22 construct: purchased Eurofins Discovery (DiscoverX KINOMEscan scanMAX)
Procedure: as §1

MEK1 = biological target: T23, MEK1 (Homo sapiens, UniProt Q02750); conditions: read-out: Percent Control
T23 construct: purchased Eurofins Discovery (DiscoverX KINOMEscan scanMAX)
Procedure: as §1

FLT3(ITD,D835V) = test system: FLT3(ITD,D835V)
Procedure: as §1

[3] = biological target: T24, EGFR(L747-S752del, P753S) (Homo sapiens, UniProt P00533, DEL747-752/P753S); conditions: read-out: Percent Control
T24 construct: purchased Eurofins Discovery (DiscoverX KINOMEscan scanMAX)
T24 sequence (P00533 with tags, fused parts or gaps DEL747-752/P753S limits assumed): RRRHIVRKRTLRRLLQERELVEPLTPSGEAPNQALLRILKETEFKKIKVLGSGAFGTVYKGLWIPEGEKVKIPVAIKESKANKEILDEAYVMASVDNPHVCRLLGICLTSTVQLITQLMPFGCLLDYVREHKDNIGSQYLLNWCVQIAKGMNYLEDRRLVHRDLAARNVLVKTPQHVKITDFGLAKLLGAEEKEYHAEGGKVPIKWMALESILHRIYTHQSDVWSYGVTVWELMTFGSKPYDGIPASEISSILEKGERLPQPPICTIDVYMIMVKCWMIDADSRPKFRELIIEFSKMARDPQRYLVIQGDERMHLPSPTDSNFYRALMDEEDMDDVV
Procedure: as §1

[4] = biological target: T25, JAK1(JH2domain-pseudokinase) (Homo sapiens, UniProt P23458); conditions: read-out: Percent Control
T25 construct: JAK1(JH2domain-pseudokinase); purchased Eurofins Discovery (DiscoverX KINOMEscan scanMAX)
T25 sequence (P23458 561-860 limits assumed): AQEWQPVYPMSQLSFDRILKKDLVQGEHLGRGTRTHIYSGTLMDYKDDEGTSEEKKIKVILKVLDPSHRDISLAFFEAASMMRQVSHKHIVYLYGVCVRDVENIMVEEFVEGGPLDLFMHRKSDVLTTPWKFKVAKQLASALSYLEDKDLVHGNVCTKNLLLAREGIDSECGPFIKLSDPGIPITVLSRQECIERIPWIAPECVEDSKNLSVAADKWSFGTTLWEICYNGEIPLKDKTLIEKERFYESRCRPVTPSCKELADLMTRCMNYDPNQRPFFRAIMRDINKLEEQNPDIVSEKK
Procedure: as §1

RIPK5 = biological target: T26, RIPK5 (Homo sapiens, UniProt Q6XUX3); conditions: read-out: Percent Control
T26 construct: purchased Eurofins Discovery (DiscoverX KINOMEscan scanMAX)
T26 sequence (Q6XUX3 whole entry): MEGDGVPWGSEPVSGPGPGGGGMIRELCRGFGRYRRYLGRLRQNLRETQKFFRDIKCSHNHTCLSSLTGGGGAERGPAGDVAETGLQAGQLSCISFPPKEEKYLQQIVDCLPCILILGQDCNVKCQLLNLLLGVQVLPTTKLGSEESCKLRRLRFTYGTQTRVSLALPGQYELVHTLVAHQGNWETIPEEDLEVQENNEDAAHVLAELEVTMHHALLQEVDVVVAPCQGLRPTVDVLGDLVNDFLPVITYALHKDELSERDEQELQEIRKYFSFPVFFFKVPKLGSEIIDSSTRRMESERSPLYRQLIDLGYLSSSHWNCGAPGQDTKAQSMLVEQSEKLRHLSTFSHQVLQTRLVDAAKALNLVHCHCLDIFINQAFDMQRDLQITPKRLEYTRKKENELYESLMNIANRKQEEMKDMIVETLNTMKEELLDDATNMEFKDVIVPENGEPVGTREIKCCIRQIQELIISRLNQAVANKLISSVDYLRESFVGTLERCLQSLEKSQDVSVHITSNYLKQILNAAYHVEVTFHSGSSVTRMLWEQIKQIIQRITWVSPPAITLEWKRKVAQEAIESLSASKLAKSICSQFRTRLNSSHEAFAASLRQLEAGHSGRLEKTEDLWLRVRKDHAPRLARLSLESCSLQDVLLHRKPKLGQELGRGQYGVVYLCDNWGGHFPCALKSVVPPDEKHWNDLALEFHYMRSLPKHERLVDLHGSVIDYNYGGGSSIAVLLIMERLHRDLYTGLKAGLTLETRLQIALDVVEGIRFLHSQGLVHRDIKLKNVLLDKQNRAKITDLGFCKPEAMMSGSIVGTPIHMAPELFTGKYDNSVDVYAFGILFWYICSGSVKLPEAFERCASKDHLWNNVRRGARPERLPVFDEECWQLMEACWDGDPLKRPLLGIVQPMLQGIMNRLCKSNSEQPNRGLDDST
Procedure: as §1

MEK5 = biological target: T27, MEK5 (Homo sapiens, UniProt Q13163); conditions: read-out: Percent Control
T27 construct: purchased Eurofins Discovery (DiscoverX KINOMEscan scanMAX)
Procedure: as §1

ROS1 = biological target: T28, ROS1 (Homo sapiens, UniProt P08922); conditions: read-out: Percent Control
T28 construct: purchased Eurofins Discovery (DiscoverX KINOMEscan scanMAX)
Procedure: as §1

TAOK3 = biological target: T29, TAOK3 (Homo sapiens, UniProt Q9H2K8); conditions: read-out: Percent Control
T29 construct: purchased Eurofins Discovery (DiscoverX KINOMEscan scanMAX)
Procedure: as §1

DRAK1 = biological target: T30, DRAK1 (Homo sapiens, UniProt Q9UEE5); conditions: read-out: Percent Control
T30 construct: purchased Eurofins Discovery (DiscoverX KINOMEscan scanMAX)
Procedure: as §1

RET = biological target: T31, RET (Homo sapiens, UniProt P07949); conditions: read-out: Percent Control
T31 construct: purchased Eurofins Discovery (DiscoverX KINOMEscan scanMAX)
Procedure: as §1

ZAK = biological target: T32, ZAK (Homo sapiens, UniProt Q9NYL2); conditions: read-out: Percent Control
T32 construct: purchased Eurofins Discovery (DiscoverX KINOMEscan scanMAX)
T32 sequence (Q9NYL2 whole entry): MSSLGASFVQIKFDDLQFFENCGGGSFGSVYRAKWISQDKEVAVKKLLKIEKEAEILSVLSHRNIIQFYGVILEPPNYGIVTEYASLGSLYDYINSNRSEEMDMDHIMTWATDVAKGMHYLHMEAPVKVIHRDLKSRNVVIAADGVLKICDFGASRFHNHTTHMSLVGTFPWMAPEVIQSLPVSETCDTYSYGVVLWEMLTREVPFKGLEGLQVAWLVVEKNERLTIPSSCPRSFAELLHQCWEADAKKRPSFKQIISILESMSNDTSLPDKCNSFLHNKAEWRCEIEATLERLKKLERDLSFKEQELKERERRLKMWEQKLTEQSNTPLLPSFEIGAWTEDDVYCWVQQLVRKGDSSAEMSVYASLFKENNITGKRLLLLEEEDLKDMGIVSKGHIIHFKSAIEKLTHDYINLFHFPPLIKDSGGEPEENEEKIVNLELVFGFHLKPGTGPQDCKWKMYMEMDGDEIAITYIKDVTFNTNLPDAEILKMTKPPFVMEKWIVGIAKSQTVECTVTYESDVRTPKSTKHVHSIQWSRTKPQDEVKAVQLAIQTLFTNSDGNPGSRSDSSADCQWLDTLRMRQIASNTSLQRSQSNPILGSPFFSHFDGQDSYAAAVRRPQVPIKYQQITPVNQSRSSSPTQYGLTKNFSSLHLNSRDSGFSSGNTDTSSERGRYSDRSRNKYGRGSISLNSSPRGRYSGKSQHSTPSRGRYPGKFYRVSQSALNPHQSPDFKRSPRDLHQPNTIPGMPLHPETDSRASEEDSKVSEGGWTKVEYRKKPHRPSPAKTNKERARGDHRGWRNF
Procedure: as §1

S6K1 = biological target: T33, S6K1 (Homo sapiens, UniProt P23443); conditions: read-out: Percent Control
T33 construct: purchased Eurofins Discovery (DiscoverX KINOMEscan scanMAX)
T33 sequence (P23443 whole entry): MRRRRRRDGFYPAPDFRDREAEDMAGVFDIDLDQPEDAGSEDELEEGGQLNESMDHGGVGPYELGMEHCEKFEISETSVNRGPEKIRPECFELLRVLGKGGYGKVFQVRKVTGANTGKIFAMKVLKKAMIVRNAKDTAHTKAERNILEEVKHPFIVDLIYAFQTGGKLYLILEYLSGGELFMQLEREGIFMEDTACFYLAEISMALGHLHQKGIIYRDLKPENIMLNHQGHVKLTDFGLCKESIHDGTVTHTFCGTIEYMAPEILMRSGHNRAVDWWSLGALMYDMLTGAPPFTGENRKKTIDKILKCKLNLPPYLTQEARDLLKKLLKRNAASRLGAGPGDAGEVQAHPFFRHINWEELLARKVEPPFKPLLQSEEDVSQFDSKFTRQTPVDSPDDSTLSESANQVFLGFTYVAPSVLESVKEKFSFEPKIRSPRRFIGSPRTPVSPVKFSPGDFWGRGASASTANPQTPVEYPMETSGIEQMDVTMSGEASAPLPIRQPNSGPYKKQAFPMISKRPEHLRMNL
Procedure: as §1

Question: What does the source list for Cc1cc(Nc2ccc(F)c(CC3(C(=O)N4CCC(F)(CN5CCN(c6ccc(N7CCC(=O)NC7=O)cn6)CC5)CC4)CCN(Cc4cccc(Cl)c4F)CC3)n2)n[nH]1 [SK5527]?
Answer: remaining binding at 0.1 µM (ACVR1B; 100 nM): 100%; remaining binding at 1 µM (ACVR1B; 1000 nM): 100%; remaining binding at 0.1 µM (PIK4CB; 100 nM): 73%; remaining binding at 1 µM (PIK4CB; 1000 nM): 65%; remaining binding at 0.1 µM (MARK2; 100 nM): 91%; remaining binding at 1 µM (MARK2; 1000 nM): 62%; remaining binding at 0.1 µM (FYN; 100 nM): 94%; remaining binding at 1 µM (FYN; 1000 nM): 71%; remaining binding at 0.1 µM (RET(V804L); 100 nM): 92%; remaining binding at 1 µM (RET(V804L); 1000 nM): 38%; remaining binding at 0.1 µM (CSNK1G1; 100 nM): 100%; remaining binding at 1 µM (CSNK1G1; 1000 nM): 98%; remaining binding at 0.1 µM (DLK; 100 nM): 71%; remaining binding at 1 µM (DLK; 1000 nM): 55%; remaining binding at 0.1 µM (JNK1; 100 nM): 72%; remaining binding at 1 µM (JNK1; 1000 nM): 95%; remaining binding at 0.1 µM (GSK3B; 100 nM): 82%; remaining binding at 1 µM (GSK3B; 1000 nM): 78%; remaining binding at 0.1 µM (FER; 100 nM): 84%; remaining binding at 1 µM (FER; 1000 nM): 100%; remaining binding at 0.1 µM ([1]; 100 nM): 24%; remaining binding at 1 µM ([1]; 1000 nM): 0%; remaining binding at 0.1 µM (ALK; 100 nM): 73%; remaining binding at 1 µM (ALK; 1000 nM): 62%; remaining binding at 0.1 µM (CSNK1E; 100 nM): 92%; remaining binding at 1 µM (CSNK1E; 1000 nM): 91%; remaining binding at 0.1 µM (ABL1-phosphorylated; 100 nM): 67%; remaining binding at 1 µM (ABL1-phosphorylated; 1000 nM): 48%; remaining binding at 0.1 µM (p38-beta; 100 nM): 100%; remaining binding at 1 µM (p38-beta; 1000 nM): 99%; remaining binding at 0.1 µM (DYRK2; 100 nM): 100%; remaining binding at 1 µM (DYRK2; 1000 nM): 80%; remaining binding at 0.1 µM (STK35; 100 nM): 99%; remaining binding at 1 µM (STK35; 1000 nM): 80%; remaining binding at 0.1 µM (QSK; 100 nM): 89%; remaining binding at 1 µM (QSK; 1000 nM): 90%; remaining binding at 0.1 µM (MAP3K15; 100 nM): 100%; remaining binding at 1 µM (MAP3K15; 1000 nM): 81%; remaining binding at 0.1 µM (IKK-beta; 100 nM): 100%; remaining binding at 1 µM (IKK-beta; 1000 nM): 73%; remaining binding at 0.1 µM ([2]; 100 nM): 88%; remaining binding at 1 µM ([2]; 1000 nM): 62%; remaining binding at 0.1 µM (JNK2; 100 nM): 67%; remaining binding at 1 µM (JNK2; 1000 nM): 74%; remaining binding at 0.1 µM (MEK1; 100 nM): 76%; remaining binding at 1 µM (MEK1; 1000 nM): 72%; Percent Control (FLT3(ITD,D835V); 100 nM): 79%; Percent Control (FLT3(ITD,D835V); 1000 nM): 59%; remaining binding at 0.1 µM ([3]; 100 nM): 81%; remaining binding at 1 µM ([3]; 1000 nM): 65%; remaining binding at 0.1 µM ([4]; 100 nM): 94%; remaining binding at 1 µM ([4]; 1000 nM): 86%; remaining binding at 0.1 µM (RIPK5; 100 nM): 97%; remaining binding at 1 µM (RIPK5; 1000 nM): 81%; remaining binding at 0.1 µM (MEK5; 100 nM): 83%; remaining binding at 1 µM (MEK5; 1000 nM): 61%; remaining binding at 0.1 µM (ROS1; 100 nM): 61%; remaining binding at 1 µM (ROS1; 1000 nM): 16%; remaining binding at 0.1 µM (TAOK3; 100 nM): 100%; remaining binding at 1 µM (TAOK3; 1000 nM): 100%; remaining binding at 0.1 µM (DRAK1; 100 nM): 100%; remaining binding at 1 µM (DRAK1; 1000 nM): 87%; remaining binding at 0.1 µM (RET; 100 nM): 88%; remaining binding at 1 µM (RET; 1000 nM): 39%; remaining binding at 0.1 µM (ZAK; 100 nM): 77%; remaining binding at 1 µM (ZAK; 1000 nM): 85%; remaining binding at 0.1 µM (S6K1; 100 nM): 100%; remaining binding at 1 µM (S6K1; 1000 nM): 100%
